Legend:
[1] = test system: human MAO-B (hMAO-B); set-up: method as in Dhiman et al. [2018]; details: ref Dhiman et al. [2018], cited from earlier work
[2] = test system: hMAO-A; set-up: method as in Seong et al. [2019]; details: ref Seong et al. [2019], cited from earlier work; for isoform selectivity (in words): hMAO-A versus hMAO-B
[3] = molecular target: T1, recombinant human MAO-B (Homo sapiens, UniProt P27338); assay: Recombinant human MAO-B enzyme inhibition assay; format: biochemical
T1 construct: purchased Active Motif 31503
T1 sequence (P27338 1-520): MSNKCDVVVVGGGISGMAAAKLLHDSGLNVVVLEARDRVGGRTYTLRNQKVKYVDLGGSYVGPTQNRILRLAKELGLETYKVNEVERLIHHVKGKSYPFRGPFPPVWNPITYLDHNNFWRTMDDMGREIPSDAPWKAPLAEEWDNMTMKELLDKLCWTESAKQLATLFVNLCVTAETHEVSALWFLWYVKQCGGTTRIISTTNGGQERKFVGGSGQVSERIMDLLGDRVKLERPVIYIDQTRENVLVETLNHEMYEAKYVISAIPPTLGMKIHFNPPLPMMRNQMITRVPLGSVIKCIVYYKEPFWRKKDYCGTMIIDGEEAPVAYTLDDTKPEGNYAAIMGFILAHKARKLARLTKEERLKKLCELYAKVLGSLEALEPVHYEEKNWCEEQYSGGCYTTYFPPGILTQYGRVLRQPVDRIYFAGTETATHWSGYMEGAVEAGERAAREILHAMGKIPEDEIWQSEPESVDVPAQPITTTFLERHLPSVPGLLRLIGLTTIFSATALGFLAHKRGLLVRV
Description: All compounds were tested with technical replicates. Compounds (100× final concentration) in 384-well source plates were dispensed (200 nL per well) into assay plates. Min/Max control wells received 200 µL of 100% DMSO. All wells except the Min controls were supplemented with 10 μL of 10 nM MAO-B (Min controls received buffer instead). Plates were centrifuged at 1000 × g for 1 min and incubated at 25 °C for 15 min. Then, 10 μL of 0.5 μM substrate was added to each well. After further centrifugation, the plates were protected from light and incubated for 60 min. The reaction was terminated by adding 20 μL of stop solution, followed by centrifugation and a 20-min equilibration period. Fluorescence was measured using an EnVision microplate reader. The inhibition percentage was calculated as follows: Inhibition (%) = [signal (max)− signal (sample)]/[signal (max) − signal (min)] × 100. Dose–response curves were generated by plotting the logarithm of compound concentration (X-axis) against the percentage inhibition (Y-axis). Curve fitting was performed in GraphPad Prism 8 using the ‘log(inhibitor) vs. response -Variable slope’ model to determine the IC50 values for MAO-B inhibition.

[4] = test system: LPS-induced HepG2 cells; assay: ALT and AST in supernatant of LPS-induced HepG2 cells; format: cell-based, Homo sapiens; details: HepG2, 100 ng/mL LPS, compounds 10, 20, 40 μM; p < 0.01 vs. model
Description: (§1) An LPS-induced hepatocyte injury model was established in HepG2 cells by treatment with 100 ng/mL LPS, using silymarin as a positive control. After treatment with test compounds at concentrations of 10, 20, and 40 μM, the cell culture supernatant was collected and centrifuged at 1000 × g for 15 min at 4 °C. The levels of alanine aminotransferase (ALT) and aspartate aminotransferase (AST) in the supernatant were quantified using commercial assay kits according to the manufacturer’s instructions. Absorbance was measured at 510 nm using a microplate reader, and results are expressed in units per liter (U/L). Additionally, the concentrations of interleukin-4 (IL-4), interleukin-10 (IL-10), and tumor necrosis factor-α (TNF-α) in the supernatant were determined by enzyme-linked immunosorbent assay (ELISA) using corresponding commercial kits. All procedures were performed in strict accordance with the manufacturer’s protocols. Cytokine levels are reported in picograms per milliliter (pg/mL), as calculated from the respective standard curves.
Silymarin was used as a positive control. The supernatant of HepG2 cells was collected from different experimental groups and separated by centrifugation (4 °C, 1000 rpm, 15 minutes). The levels of ALT and AST in the supernatant were determined following the manufacturer's instructions provided with the commercial assay kits. The optical density (OD) values of each well were measured at a wavelength of 510 nm using a microplate reader. These values are expressed in units per liter (U/L) or millimoles per liter (mmol/L).

[5] = test system: LPS-induced HepG2 cells; assay: IL-4, IL-10 and TNF-α in supernatant of LPS-induced HepG2 cells (ELISA); format: cell-based, Homo sapiens; details: for LPS-induced inflammatory response (pro-inflammatory cytokines): HepG2, LPS
Description: as §1
The cell culture supernatant was collected and separated by centrifugation at 4°C and 1000 rpm for 15 minutes. Levels of IL-4, IL-10, and TNF-α in the supernatant were determined using enzyme-linked immunosorbent assay (ELISA), strictly following the manufacturer’s protocols provided with the corresponding commercial ELISA kits. These values were quantified in picograms per milliliter (pg/mL) based on the standard curves generated.

[6] = test system: human MAO-B; set-up: method as in Kozioł et al. [2020]; details: 6.17 μM; ref Kozioł et al. [2020]; cited from earlier work
[7] = test system: MAO-A; set-up: method as in Kozioł et al. [2020]; details: 6.17 μM; ref Kozioł et al. [2020]; cited from earlier work
[8] = test system: MAO; set-up: method as in Kozioł et al. [2020]; details: reference inhibitors at ∼3–5 μM; ref Kozioł et al. [2020]; cited from earlier work
[9] = test system: hMAO; set-up: method as in Seong et al. [2019]; details: enzyme kinetic studies; ref Seong et al. [2019]; cited from earlier work
[10] = test system: hMAO-B; set-up: method as in Seong et al. [2019]; details: ref Seong et al. [2019]; cited from earlier work
[11] = test system: liver injury; set-up: method as in He et al. [2024]; details: suppressing TNF-α/JAK1/STAT3 signaling while enhancing IL-4/IL-10 production; ref He et al. [2024]; cited from earlier work
[12] = HepG2 supernatant, LPS, 10–40 μM, ELISA

In the case of `O=C(Oc1ccc2ccc(=O)oc2c1)C(O)c1ccccc1` (stereo not shown) [2-oxo-2H-chromen-7-yl 2-hydroxy-2-phenylacetate], the selectivity index ([1]; hMAO-B) is listed as 8.55 and the IC50 [1] is listed as 10.32 ± 0.044 µM.

In the case of `O=c1ccc2ccc(O)cc2o1` [umbelliferone], the “isoform selectivity (in words)” value [2] is listed as “selectivity for hMAO-A versus hMAO-B”.

In the case of `COc1cc2cc(C3CC3(C)C)c(=O)oc2cc1O` (racemic) [(±)-2, (±)-Rutacycoumarin B], the “MAO-B inhibition (in words)” value [3] is reported as “potently inhibited”, the “LPS-elevated ALT level” value [4] is reported as “significant suppression” and the “LPS-elevated AST level” value [4] is reported as “significant suppression”. The “LPS-induced inflammatory response (pro-inflammatory cytokines)” value [5] was “significant suppression”, the IL-4 level [5, 12] was “dose-dependently restored” and the IL-10 level [5, 12] was “dose-dependently restored”. For the same compound, the TNF-α expression [5, 12] was “suppressed”.

With `CC1(C)CC1c1cc2ccc(O)cc2oc1=O` (racemic) [(±)-1, (±)-Rutacycoumarin A] the “MAO-B inhibition (in words)” value [3] was “potently inhibited”, the “LPS-elevated ALT level” value [4] was “significant suppression” and the “LPS-elevated AST level” value [4] was “significant suppression”. For the same compound, the “LPS-induced inflammatory response (pro-inflammatory cytokines)” value [5] was “significant suppression”.

In the case of `C=CC(C)(C)c1cc2cc3c(cc2oc1=O)OC(C(C)(C)OC(C)=O)C3` (stereo not shown) [rutamarin], the “inhibition rate of human MAO-B” value [6] is listed as 95.26% and the “inhibition of MAO-A” value [7] is listed as 25.15%.

For `C#CCN(C)[C@H](C)Cc1ccccc1` [selegiline], the MAO inhibition [8] is listed as > 99%.

For `C#CCN(C)CCCOc1ccc(Cl)cc1Cl` [clorgyline], the MAO inhibition [8] is given as > 99%.

In the case of `COc1cc2ccc(=O)oc2cc1O` [scopoletin], the “isoform selectivity (in words)” value [2] is given as “selectivity for hMAO-A versus hMAO-B”.

In the case of `O=c1ccc2cc(O)c(O)cc2o1` [esculetin], the “isoform selectivity (in words)” value [2] is given as “selectivity for hMAO-A versus hMAO-B”.

In the case of `O=Cc1c(O)ccc2ccc(=O)oc12` [8-formyl umbelliferone], the “isoform selectivity (in words)” value [2] is listed as “selectivity for hMAO-A versus hMAO-B” and the “mode of hMAO inhibition” value [9] is listed as “competitive”.

For `O=C(O)c1cc2ccc(=O)oc2cc1O` [umbelliferone-6-carboxylic acid], the “isoform selectivity (in words)” value [2] is listed as “selectivity for hMAO-A versus hMAO-B”.

In the case of `O=Cc1cc2ccc(=O)oc2cc1O` [6-formyl umbelliferone], the “isoform selectivity (in words)” value [2] is listed as “selectivity for hMAO-A versus hMAO-B”, the IC50 [2] is listed as 3.23 µM and the IC50 [10] is listed as 15.3 µM. The “mode of hMAO inhibition” value [9] was “competitive”.

In the case of `Cn1c(-c2ccc3c(c2)OCO3)cc(=O)c2ccccc21` [graveoline], the hepatoprotective effect [11] is given as “attenuates liver injury”.

From article PMC12704139, “(±)-Rutacycoumarins A and B: two pairs of unprecedented coumarin enantiomers from the aerial part of Ruta graveolens L. and chemically synthesized” (Pharmaceutical Biology, 2025)
